PubChem BioAssay AID330 (DTP/NCI, 2004)
“And” between values parts separate entries of the source, which are not always exact repeats. Identical values can stand only once. Inconclusive results and toxic doses are left out.

System: P388 leukemia ip, CD2F1 mice, survival T/C
Test: NCI In Vivo Anticancer Drug Screen. Data for tumor model P388 Leukemia (intraperitoneal) in CD2F1 (CDF1) mice
Details: endpoint: median survival time, higher = longer survival
Outline: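 Mice carrying the transplanted tumor received test compound or vehicle. Survival was recorded in each group, and the value is the treated-group measurement divided by that of the vehicle-treated control group.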

[1] = dose: 12.5 mg/kg/injection, schedule: Q01DX009 (ip), vehicle: saline with Tween-80
[2] = dose: 25.0 mg/kg/injection, schedule: Q01DX009 (ip), vehicle: saline with Tween-80
[3] = dose: 60.0 mg/kg/injection, schedule: Q01DX005 (ip), vehicle: Klucel (hydroxypropylcellulose) (HPC)
[4] = dose: 120.0 mg/kg/injection, schedule: Q01DX005 (ip), vehicle: Klucel (hydroxypropylcellulose) (HPC)
[5] = dose: 240.0 mg/kg/injection, schedule: Q01DX005 (ip), vehicle: Klucel (hydroxypropylcellulose) (HPC)
[6] = dose: 60.0 mg/kg/injection, schedule: Q01DX005 (ip), vehicle: saline with Tween-80
[7] = dose: 120.0 mg/kg/injection, schedule: Q01DX005 (ip), vehicle: saline with Tween-80
[8] = dose: 240.0 mg/kg/injection, schedule: Q01DX005 (ip), vehicle: saline with Tween-80
[9] = dose: 50.0 mg/kg/injection, schedule: Q01DX009 (ip), vehicle: saline with Tween-80
[10] = dose: 100.0 mg/kg/injection, schedule: Q01DX009 (ip), vehicle: saline with Tween-80
[11] = dose: 200.0 mg/kg/injection, schedule: Q01DX009 (ip), vehicle: saline with Tween-80
[12] = dose: 50.0 mg/kg/injection, schedule: Q01DX009 (ip), vehicle: Klucel (hydroxypropylcellulose) (HPC)
[13] = dose: 100.0 mg/kg/injection, schedule: Q01DX009 (ip), vehicle: Klucel (hydroxypropylcellulose) (HPC)

Compound: C=C1C(=O)O[C@@H]2/C=C(\C)CC/C=C(/COC(C)=O)C[C@@H](OC(C)=O)[C@@H]12
- T/C (dose: 6.25 mg/kg/injection, schedule: Q01DX009 (ip), vehicle: saline with Tween-80): 97 % of control
- T/C (dose: 9.0 mg/kg/injection, schedule: Q01DX009 (ip), vehicle: acetone): 106 % of control
- T/C [1]: 103 % of control
- T/C (dose: 18.0 mg/kg/injection, schedule: Q01DX009 (ip), vehicle: acetone): 106 % of control
- T/C [2]: 106 % of control
- T/C (dose: 36.0 mg/kg/injection, schedule: Q01DX009 (ip), vehicle: acetone): 109 % of control
- T/C (dose: 72.0 mg/kg/injection, schedule: Q01DX009 (ip), vehicle: acetone): 124 % of control

Compound: CC(=O)C1C(=O)C(=O)N(c2ccc(O)c(C(=O)O)c2)C1=O (stereo unspecified)
- T/C (dose: 100.0 mg/kg/injection, schedule: Q04DX002 (ip), vehicle: saline with Tween-80): 100 % of control
- T/C (dose: 200.0 mg/kg/injection, schedule: Q04DX002 (ip), vehicle: saline with Tween-80): 94 % of control
- T/C (dose: 400.0 mg/kg/injection, schedule: Q04DX002 (ip), vehicle: saline with Tween-80): 93 % of control

Compound: COc1ccc(-c2c(C#N)c(N)nc(C)c2-c2ccccc2)cc1
- T/C (dose: 100.0 mg/kg/injection, schedule: Q01DX001 (ip), vehicle: saline with Tween-80): 100 % of control
- T/C (dose: 200.0 mg/kg/injection, schedule: Q01DX001 (ip), vehicle: saline with Tween-80): 96 % of control
- T/C (dose: 400.0 mg/kg/injection, schedule: Q01DX001 (ip), vehicle: saline with Tween-80): 91 % of control

Compound: O=C(O)c1cc([N+](=O)[O-])ccc1Nc1ccccc1
- T/C (dose: 6.25 mg/kg/injection, schedule: Q01DX009 (ip), vehicle: suspension in saline): 108 % of control and 90 % of control
- T/C (dose: 12.5 mg/kg/injection, schedule: Q01DX009 (ip), vehicle: suspension in saline): 104 % of control
- T/C (dose: 25.0 mg/kg/injection, schedule: Q01DX009 (ip), vehicle: suspension in saline): 100 % of control and 90 % of control
- T/C (dose: 50.0 mg/kg/injection, schedule: Q01DX009 (ip), vehicle: suspension in saline): 111 % of control and 91 % of control

Compound: COc1cc2ccc3c(c2cc1OC)N(C)C(OC)c1cc2c(cc1-3)OCO2 (stereo unspecified)
- T/C (dose: 10.0 mg/kg/injection, schedule: Q01DX009 (ip), vehicle: Klucel (hydroxypropylcellulose) (HPC)): 153 % of control
- T/C (dose: 40.0 mg/kg/injection, schedule: Q01DX009 (ip), vehicle: Klucel (hydroxypropylcellulose) (HPC)): 173 % of control
- T/C (dose: 80.0 mg/kg/injection, schedule: Q01DX009 (ip), vehicle: Klucel (hydroxypropylcellulose) (HPC)): 110 % of control

Compound: O=C1OC(c2cccnc2)OC(c2ccccc2)=C1C(=O)c1ccccc1 (stereo unspecified)
- T/C [3]: 107 % of control
- T/C [4]: 98 % of control
- T/C [5]: 97 % of control

Compound: O=C1SC(=NC2CCCCC2)N(C2CCCCC2)/C1=C1\C(=O)SC(=NC2CCCCC2)N1C1CCCCC1
- T/C (dose: 15.0 mg/kg/injection, schedule: Q01DX005 (ip), vehicle: saline with Tween-80): 92 % of control
- T/C (dose: 30.0 mg/kg/injection, schedule: Q01DX005 (ip), vehicle: saline with Tween-80): 90 % of control

Compound: CCOC(=O)c1cnc2ccc(C3CCCCC3)cc2c1Nc1ccc2c(c1)OCO2
- T/C [6]: 99 % of control
- T/C [7]: 91 % of control
- T/C [8]: 91 % of control

Compound: Nc1nccc2[nH]ccc12
- T/C (dose: 12.5 mg/kg/injection, schedule: Q01DX001 (ip), vehicle: saline): 103 % of control
- T/C (dose: 25.0 mg/kg/injection, schedule: Q01DX001 (ip), vehicle: saline): 102 % of control
- T/C (dose: 50.0 mg/kg/injection, schedule: Q01DX001 (ip), vehicle: saline): 112 % of control

Compound: CC(C)(N)C(=O)O
- T/C [1]: 101 % of control
- T/C [2]: 94 % of control
- T/C [9]: 100 % of control
- T/C [10]: 94 % of control
- T/C [11]: 100 % of control
- T/C (dose: 400.0 mg/kg/injection, schedule: Q01DX009 (ip), vehicle: saline with Tween-80): 94 % of control
- T/C (dose: 800.0 mg/kg/injection, schedule: Q01DX009 (ip), vehicle: saline with Tween-80): 94 % of control
- T/C (dose: 1600.0 mg/kg/injection, schedule: Q01DX009 (ip), vehicle: saline with Tween-80): 94 % of control

Compound: Cc1nn(C(=O)c2ccncc2)c(C)c1N=Nc1ccc([N+](=O)[O-])cc1
- T/C [12]: 92 % of control
- T/C [13]: 93 % of control

Compound: COc1ccc(C(=O)N/N=C2\C(=O)c3c(C)cc(C)cc3CC2(C)C)cc1
- T/C (dose: 50.0 mg/kg/injection, schedule: Q01DX009 (ip), vehicle: saline): 100 % of control
- T/C (dose: 100.0 mg/kg/injection, schedule: Q01DX009 (ip), vehicle: saline): 100 % of control
- T/C (dose: 200.0 mg/kg/injection, schedule: Q01DX009 (ip), vehicle: saline): 94 % of control

Compound: CCOC(=O)C1=C(C)N(C)C(C)=C(C(=O)OCC)C1
- T/C [6]: 108 % of control
- T/C [7]: 100 % of control
- T/C [8]: 101 % of control

Compound: CCOC(=O)c1nc(SC)n(C)c1C(=O)OCC
- T/C [6]: 100 % of control
- T/C [7]: 100 % of control
- T/C [8]: 105 % of control

Compound: O=C1NC(=O)N(c2ccccc2)C(=O)/C1=C/c1ccc2c(c1)CCC2
- T/C [3]: 95 % of control
- T/C [4]: 97 % of control
- T/C [5]: 108 % of control

Compound: O=C(NC1CCCCC1)O/N=C/c1ccc2c(c1)OCO2
- T/C [9]: 93 % of control
- T/C [10]: 86 % of control
- T/C [11]: 86 % of control

Compound: O=P(O)(O)SP(=O)(O)O.[Ni]
- T/C (dose: 12.5 mg/kg/injection, schedule: Q01DX001 (ip), vehicle: suspension in saline): 102 % of control and 94 % of control
- T/C (dose: 25.0 mg/kg/injection, schedule: Q01DX001 (ip), vehicle: suspension in saline): 99 % of control and 94 % of control
- T/C (dose: 50.0 mg/kg/injection, schedule: Q01DX001 (ip), vehicle: suspension in saline): 122 % of control

Compound: C/C(=N\NC(=S)N(C)C)c1ncc[nH]1
- T/C (dose: 50.0 mg/kg/injection, schedule: Q01DX005 (ip), vehicle: saline with Tween-80): 121 % of control
- T/C (dose: 100.0 mg/kg/injection, schedule: Q01DX005 (ip), vehicle: saline with Tween-80): 119 % of control

Compound: CN(C)C(=S)c1ccccc1NS(=O)(=O)c1ccccc1
- T/C (dose: 100.0 mg/kg/injection, schedule: Q04DX003 (ip), vehicle: saline): 106 % of control
- T/C (dose: 200.0 mg/kg/injection, schedule: Q04DX003 (ip), vehicle: saline): 100 % of control
- T/C (dose: 400.0 mg/kg/injection, schedule: Q04DX003 (ip), vehicle: saline): 97 % of control

Compound: CSCC(C)C(N)C(=O)O (stereo unspecified)
- T/C [12]: 109 % of control
- T/C [13]: 105 % of control
- T/C (dose: 200.0 mg/kg/injection, schedule: Q01DX009 (ip), vehicle: Klucel (hydroxypropylcellulose) (HPC)): 100 % of control

Compound: O=[n+]1c2ccccc2n([O-])c2ccccc21.[Cl][Ni][Cl]
- T/C (dose: 6.25 mg/kg/injection, schedule: Q04DX003 (ip), vehicle: saline with Tween-80): 102 % of control and 94 % of control
- T/C (dose: 12.5 mg/kg/injection, schedule: Q04DX003 (ip), vehicle: saline with Tween-80): 111 % of control and 121 % of control
- T/C (dose: 25.0 mg/kg/injection, schedule: Q04DX003 (ip), vehicle: saline with Tween-80): 115 % of control and 121 % of control
- T/C (dose: 50.0 mg/kg/injection, schedule: Q04DX003 (ip), vehicle: saline with Tween-80): 114 % of control

Compound: N=C1SC23CCCN2C(=O)C2(CCCN2C3=O)S1
- T/C (dose: 100.0 mg/kg/injection, schedule: Q01DX001 (ip), vehicle: saline): 96 % of control
- T/C (dose: 200.0 mg/kg/injection, schedule: Q01DX001 (ip), vehicle: saline): 92 % of control
- T/C (dose: 400.0 mg/kg/injection, schedule: Q01DX001 (ip), vehicle: saline): 92 % of control

Compound: [I][Pt+2][I].[NH-]C(c1ccccc1)C([NH-])c1ccccc1 (stereo unspecified)
- T/C (dose: 12.5 mg/kg/injection, schedule: Q04DX002 (ip), vehicle: saline with Tween-80): 102 % of control
- T/C (dose: 25.0 mg/kg/injection, schedule: Q04DX002 (ip), vehicle: saline with Tween-80): 109 % of control and 111 % of control
- T/C (dose: 50.0 mg/kg/injection, schedule: Q04DX002 (ip), vehicle: saline with Tween-80): 115 % of control

Compound: CC1CN(/N=C/c2ccc([N+](=O)[O-])o2)C(=O)O1 (stereo unspecified)
- T/C (dose: 6.25 mg/kg/injection, schedule: Q01DX009 (ip), vehicle: Klucel (hydroxypropylcellulose) (HPC)): 108 % of control
- T/C (dose: 12.5 mg/kg/injection, schedule: Q01DX009 (ip), vehicle: Klucel (hydroxypropylcellulose) (HPC)): 106 % of control
- T/C (dose: 25.0 mg/kg/injection, schedule: Q01DX009 (ip), vehicle: Klucel (hydroxypropylcellulose) (HPC)): 103 % of control
- T/C [12]: 103 % of control
